Data set [1] concerns IL-1β. Nature of the data set: PBMC assay, IL-1β. Particulars: human PBMCs, 30 min with compound, then 100 ng/ml LPS for 6 hrs, supernatant analysed via MSD technology, read-out: IL1β IC50. It counts as cell-based. The protocol: The activity of a compound according to the present invention can be assessed by in vitro methods.
(§1) Peripheral venous blood was collected from healthy individuals and human peripheral blood mononuclear cells (PBMCs) were isolated from blood by Ficoll-Histopaque (Sigma-Aldrich, A0561) density gradient centrifugation. After isolation, PBMCs were stored in liquid nitrogen for later use. Upon thawing, PBMC cell viability was determined in growth medium (RPMI media supplemented with 10% fetal bovine serum, 1% Pen-Strep and 1% L-glutamine). Compounds were spotted in a 1:3 serial dilution in DMSO and diluted to the final concentration in 30 μl medium in 96 well plates (Falcon, 353072). PBMCs were added at a density of 7.5×10^4 cells per well and incubated for 30 min in a 5% CO2 incubator at 37° C. LPS stimulation was performed by addition of 100 ng/ml LPS (final concentration, Invivogen, tlrl-smlps) for 6 hrs followed by collection of cellular supernatant and the analysis of IL-1β (μM) and TNF cytokines levels (μM) via MSD technology according to manufacturers' guidelines (MSD, K151A0H).
(§2) The IC50 values (for IL-1β) and EC50 values (TNF) were obtained on compounds of formula (I)/examples, and are depicted in the following table: […]

Data set [2] deals with TNF. Nature of the data set: PBMC assay, TNF. It counts as cell-based. Particulars: human PBMCs, 30 min with compound, then 100 ng/ml LPS for 6 hrs, supernatant analysed via MSD technology. The protocol:
as §1, §2

pEC50, pIC50: −log10 of the molar value.

The term melting point denotes the temperature, or range, at which the solid turns liquid. As usually defined, the pIC50 is the IC50 on a negative log10 scale, so that one unit is a factor of ten. Broadly, the pEC50 is −log10 of the EC50, conventionally taken in molar units. `CN(C)c1nn(CC(=O)Nc2ccc(=O)n(C)n2)c(=O)c2ccc(Cl)cc12` [Compound 8J] registered a melting point of 253.4 °C. In addition, the pIC50 in data set [1] is 6.08. Moreover, in data set [2], the pEC50 is less than 5.00.

With `O=C(Cn1nc(N2CC(F)(F)C2)c2cc(C(F)(F)F)ccc2c1=O)Nc1ccc2nncn2c1` [Compound 3C], the pIC50 in data set [1] is less than 5.00. Besides, the pEC50 in data set [2] was less than 5.00.

Turning to `CN(C)c1nn(CC(=O)N[C@H]2C[C@@](C)(O)C2)c(=O)c2cc(Cl)ccc12` [Compound 9H], the melting point came out at 173.1 °C. Besides, the pIC50 in data set [1] is less than 5.00. In addition, in data set [2], the pEC50 was less than 5.00.

In the case of `CN(C)c1nn(CC(=O)Nc2ccc3nncn3n2)c(=O)c2ccc(Br)cc12` [Compound 11A], the melting point was 231.6 °C. The pIC50 in data set [1] was 7.30. Also, in data set [2], the pEC50 was less than 5.00.

Compound `O=C(Cn1nc(N2CC(F)(F)C2)c2cc(Br)ccc2c1=O)Nc1ccncn1` [Compound 4G] returned a melting point of 286.8 °C. Also, the pIC50 in data set [1] is 5.37. Moreover, in data set [2], the pEC50 is less than 5.00.

`CN(C)c1nn(CC(=O)Nc2ccc(=O)n(C)n2)c(=O)c2ccc(C(F)(F)F)cc12` [Compound 1K] registered a melting point of 241.8 °C. The pIC50 in data set [1] is 6.44. The pEC50 in data set [2] is less than 5.00.

`CN(C)c1nn(CC(=O)Nc2ccc3nncn3c2)c(=O)c2ccc(Br)cc12` [Compound 5D] showed a melting point greater than 300 °C. In addition, the pIC50 in data set [1] was 7.30. The pEC50 in data set [2] is less than 5.00.

As for `CN(C)CCN(C)c1nn(CC(=O)Nc2ccc3nncn3c2)c(=O)c2ccc(C(F)(F)F)cc12` [Compound 6C], in data set [1], the pIC50 is less than 5.00. Also, the pEC50 in data set [2] is less than 5.00.

Regarding `CN(C)c1nn(CC(=O)Nc2ccncn2)c(=O)c2ccc(C(F)(F)F)cc12` [Compound 1I], the melting point came out at 238.3 °C. Besides, the pIC50 in data set [1] was 6.77. Besides, the pEC50 in data set [2] was less than 5.00.

Compound `CN(C)c1nn(CC(=O)N[C@H]2C[C@@](C)(O)C2)c(=O)c2ccc(Br)cc12` [Compound 5C] returned a melting point of 193.2 °C. In data set [1], the pIC50 is 7.52. Further, the pEC50 in data set [2] was less than 5.00.

Compound `O=C(Cn1nc(N2CC(F)(F)C2)c2cc(C(F)(F)F)ccc2c1=O)Nc1ccnnc1` [Compound 3E] had a melting point of 221.6 °C. Moreover, the pIC50 in data set [1] is 5.02. Further, the pEC50 in data set [2] is less than 5.00.

In the case of `O=C(Cn1nc(N2CC(F)(F)C2)c2cc(C(F)(F)F)ccc2c1=O)Nc1ccncn1` [Compound 3D], the melting point was 288.6 °C. Further, the pIC50 in data set [1] is 5.48. Moreover, the pEC50 in data set [2] was less than 5.00.

As to `CC(C)n1ccc(NC(=O)Cn2nc(N3CC(F)(F)C3)c3cc(C(F)(F)F)ccc3c2=O)n1` [Compound 3G], the melting point amounted to 220 °C. In data set [1], the pIC50 was less than 5.00. Also, the negative logarithm of the EC50 (pEC50) in data set [2] is less than 5.00.

In turn, `CN(C)c1nn(CC(=O)N[C@H]2C[C@@](C)(O)C2)c(=O)c2ccc(C(F)(F)F)cc12` [Compound 1J] gave a melting point of 184.8 °C. The pIC50 in data set [1] was 7.15. For the same compound, the negative-log EC50 (pEC50) in data set [2] was less than 5.00.

Compound `C[C@]1(O)C[C@@H](NC(=O)Cn2nc(N3CC(F)(F)C3)c3cc(C(F)(F)F)ccc3c2=O)C1` [Compound 3F] gave a melting point of 213.3 °C. Moreover, the pIC50 in data set [1] was 5.51. For the same compound, the pEC50 in data set [2] was less than 5.00.

In the case of `COCCN(C)c1nn(CC(=O)Nc2ccc3nncn3c2)c(=O)c2ccc(C(F)(F)F)cc12` [Compound 7C], the pIC50 in data set [1] was 5.25. For the same compound, the pEC50 in data set [2] is less than 5.00.

Turning to `CN(C)c1nn(CC(=O)Nc2ccc3nncn3c2)c(=O)c2cc(Cl)ccc12` [Compound 9J], the melting point was greater than 300 °C. Also, the pIC50 in data set [1] was less than 5.00. The negative logarithm of the EC50 (pEC50) in data set [2] is less than 5.00.

`CN(C)c1nn(CC(=O)Nc2ccc(=O)n(C)n2)c(=O)c2ccc(Br)cc12` [Compound 5E]: the melting point was found to be 246.8 °C. Besides, the negative logarithm of the IC50 (pIC50) in data set [1] is 6.77. The pEC50 in data set [2] was less than 5.00.

For `CN(C)c1nn(CC(=O)Nc2ccc3nncn3n2)c(=O)c2ccc(C(F)(F)F)cc12` [Compound 2A, N-([1,2,4]triazolo[4,3-b]pyridazin-6-yl)-2-(4-(dimethylamino)-1-oxo-6-(trifluoromethyl)phthalazin-2(1H)-yl)acetamide], the pIC50 in data set [1] is 7.15. For the same compound, the pEC50 in data set [2] is less than 5.00.

Consider `CN(C)c1nn(CC(=O)Nc2ccc(=O)n(C)n2)c(=O)c2cc(Cl)ccc12` [Compound 9I], for which the melting point worked out at 213.2 °C. Further, in data set [1], the negative-log IC50 (pIC50) was less than 5.00. Further, the negative logarithm of the EC50 (pEC50) in data set [2] was less than 5.00.

`CN(C)c1nn(CC(=O)Nc2ccc3nncn3c2)c(=O)c2ccc(Cl)cc12` [Compound 8I] returned a melting point of 295.3 °C. Moreover, the pIC50 in data set [1] is 6.51. The negative logarithm of the EC50 (pEC50) in data set [2] was less than 5.00.

Compound `CN(C)c1nn(CC(=O)Nc2ccc3nncn3n2)c(=O)c2ccc(Cl)cc12` [Compound 10A] gave a melting point of 270.3 °C. The pIC50 in data set [1] is 6.89. For the same compound, the pEC50 in data set [2] is less than 5.00.

Take `CN(C)c1nn(CC(=O)Nc2ccc3nncn3c2)c(=O)c2ccc(C(F)(F)F)cc12` [Compound 1H, N-([1,2,4]triazolo[4,3-a]pyridin-6-yl)-2-(4-(dimethylamino)-1-oxo-6-(trifluoromethyl)phthalazin-2(1H)-yl)acetamide]: the pIC50 in data set [1] was 7.10. Besides, the negative-log EC50 (pEC50) in data set [2] was less than 5.00.

`CN(C)c1nn(CC(=O)N[C@H]2C[C@@](C)(O)C2)c(=O)c2ccc(Cl)cc12` [Compound 8H] showed a melting point of 184.8 °C. Moreover, the pIC50 in data set [1] was 6.92. Further, the pEC50 in data set [2] is less than 5.00.

These data come from patent US20240239757A1, “PHTHALAZINONE DERIVATES AS NLRP3 INFLAMMASOME INHIBITORS” (JANSSEN PHARMACEUTICA NV, priority 2021, published 2024).
